{"source": "patent US10688063B2", "about": "“Treating and/or preventing insulin-resistance related weight gain” (University of South Florida, priority 2013, dated 2020)", "key": {"[1]": {"tested_on": "aPKC", "assay": "aPKC activity in brains of heterozygous muscle-specific PKC-λ knockout mice (Western)", "type": "in vivo, mouse", "settings": "treated for 8 days", "method": "Standard lab mice (“control” or “con” mice) and heterozygous muscle-specific PKC-λ knockout mice were fed standard chow containing 10% fat. Some mice were treated for 8 days with ICAPP. Some mice were acutely treated with insulin (1 U/kg body weight administered intraperitoneally) 15 minutes prior to killing. Brain tissues were collected and prepared for phospho-protein analysis. Activity/activation of aPKC was assessed by Western blot analyses of phospho-protein immunoreactivity followed by quantitative scanning of the blots."}, "[2]": {"tested_on": "aPKC", "assay": "aPKC activity in liver and muscle of high fat fed (HFF) mice, 10 weeks treatment", "type": "in vivo, mouse", "settings": "daily s.c. 10 weeks"}, "[3]": {"target": "T1, Akt2 (Mus musculus, UniProt Q60823)", "T1 construct": "from tissue; host or cells: mouse liver and muscle", "T1 sequence (Q60823 whole entry)": "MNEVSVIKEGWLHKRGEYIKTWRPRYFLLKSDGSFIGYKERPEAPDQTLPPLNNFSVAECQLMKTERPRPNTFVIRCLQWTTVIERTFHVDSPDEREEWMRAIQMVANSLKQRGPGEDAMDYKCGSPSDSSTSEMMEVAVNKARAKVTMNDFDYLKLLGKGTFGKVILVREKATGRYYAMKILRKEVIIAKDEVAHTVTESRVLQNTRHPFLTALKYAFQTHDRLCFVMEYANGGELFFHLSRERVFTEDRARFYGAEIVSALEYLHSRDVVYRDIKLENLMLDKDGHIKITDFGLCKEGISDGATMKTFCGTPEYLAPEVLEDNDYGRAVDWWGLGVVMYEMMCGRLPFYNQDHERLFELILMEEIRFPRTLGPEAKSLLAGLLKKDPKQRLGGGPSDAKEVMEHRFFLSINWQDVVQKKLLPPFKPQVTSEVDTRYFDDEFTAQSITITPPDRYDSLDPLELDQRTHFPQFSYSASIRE", "assay": "Akt2 activity in liver and muscle of HFF mice, 10 weeks treatment", "type": "in vivo", "settings": "daily s.c. 10 weeks"}, "[4]": {"tested_on": "Ser473-Akt, Ser9-GSK3β, Thr555/560-PKC-λ/ζ, Thr2448-mTOR", "assay": "Hepatic phosphorylation of Ser473-Akt, Ser9-GSK3β, Thr555/560-PKC-λ/ζ, Thr2448-mTOR in HFF mice (Western)", "type": "in vivo, mouse", "settings": "10 weeks", "method": "(§1) Post mortem, liver tissue was removed and examined for immunoreactivity of the indicated signaling factors.\nTissue Preparation: To prepare cell lysates, liver and muscle tissue samples were homogenized in ice-cold buffer containing 0.25 mol/l sucrose, 20 mmol/l Tris/HCl (pH, 7.5), 2 mmol/l EGTA, 2 mmol/l EDTA, 1 mmol/l phenlysulfonlyfluoride (PMSF), 20 μg/ml leupeptin, 10 μg/ml aprotinin, 2 mmol/l Na4P2O7, 2 mmol/l Na3VO4, 2 mmol/l NaF, and 1 μmol/l microcystin, and then supplemented with 1% TritonX-100, 0.6% Nonidet and 150 mmol/l NaCl, and cleared by low-speed centrifugation.\nWestern Analysis: Western analysis for the indicated signaling factors and GAPDH (endogenous control) were conducted as described in Sajan and Farese. 2012 Diabetologia. 55:1446-1457, Standaert et al. 2004. J. Biol. Chem. 279:24929-24934, Sajan et al. 2012. Metabolism. 61:459-469, Sajan et al. 2009. Diabetologia. 52:1197-1207, Sajan et al. 2009. J. Lipid Res. 50:1133-1145, and Sajan et al. 2013. Diabetologia. 56:2507-2516 using […] anti-phospho-Ser^473-Akt antiserum, rabbit anti-glyceraldehyde-phosphate dehydrogenase (GAPDH) antiserum, rabbit anti-WD40-ProF antiserum, and rabbit anti-aPKC antiserum (Santa Cruz Biotechnologies, Santa Cruz, Calif.); rabbit anti-phospho-Thr560/555 PKC-ζ/λ/ι antiserum (Invitrogen, Carlsbad, Calif.); rabbit anti-p-Ser^256-FoxO1 and anit-FoxO1 antiserum (Abnova, Walnut, Calif.); mouse monoclonal anti-PKC-λ/ι antibodies (Transduction Antibodies, Bedford, Mass.); and rabbit anti-phospho-Ser^9-GSK3β antiserum, rabbit anti-phosphoSer^[…]-mTOR antiserum, and mouse anti-Akt antibodies (Cell Signaling Technologies, Danvers, Mass.). Samples from experimental groups were compared on the same blots and corrected for recovery as needed by measurement of GAPDH immunoreactivity."}, "[5]": {"tested_on": "SREBP-1c, FAS, PEPCK, G6Pase", "assay": "Hepatic mRNA and protein levels of lipogenic and gluconeogenic enzymes in HFF mice", "type": "in vivo, mouse", "settings": "10 weeks, ad libitum-fed", "method": "as §1\nNuclear preparations were also prepared as described in Sajan et al. 2009. Diabetologia. 52:1197-1207. Western analysis was conducted to evaluate the indicated immunoreactive proteins as in Example 7, except in this Example, rabbit polyclonal anti-GAPDH antiserum, rabbit polyclonal anti-FAS antiserum, rabbit polyclonal anti-PEPCK antiserum, rabbit polyclonal anti-G6Pase antiserum (Santa Cruz Biotechnologies, Santa Cruz, Calif.), and mouse monoclonal anti-SREBP-1 antibodies (Lab Vision Corp., Freemont, Calif.) were used to detect the indicated proteins."}, "[6]": {"tested_on": "FoxO1, WD40/ProF", "assay": "Hepatic Ser256-FoxO1 phosphorylation and aPKC/Akt in WD40/ProF immunoprecipitates in HFF mice", "type": "in vivo, mouse", "settings": "10 weeks", "method": "as §1\nFor the results shown in FIG. 10A, liver cell lysates were prepared as previously described. Phosphorylated FoxO1 and un-phosphorylated FoxO1 were analyzed using western blotting as previously described except rabbit anti-phospho-Ser^256-FoxO1 antisera and anti-FoxO1 antiserum was used.\nFor the results in FIG. 10B, the indicated immunoreactive proteins were analyzed in the immunopercipitates via western blot as previously described except that rabbit anti-aPKC-λ/ι, FoxO1, or WD40/ProF antisera were used."}, "[7]": {"assay": "Glucose tolerance, serum parameters, body weight, food intake, liver and abdominal fat in HFF mice", "type": "in vivo, mouse", "method": "Briefly, […] body weight was injected intraperitoneally. After the glucose injection, blood glucose levels were measured at 0, 30, 60, 90 and 120 minutes post-injection. 15 minutes prior to killing, mice were injected with or without insulin (1 U/kg body weight). Serum glucose, triglycerides, and serum cholesterol were measured using methods generally known in the art. Liver triglycerides were also measured using methods generally known in the art. Over the 10 weeks, body weight and food intake were measured weekly. Overall change in bodyweight was also evaluated. Additionally, epididymal plus retroperitoneal fat (also abbreviated PG/PN fat) was measured and evaluated as g/100 g of body weight. After killing, liver tissue samples were sectioned and prepared for Oil red O staining by methods generally known in the art. Samples were Oil Red O stained to observe hepatic fat contents."}, "[8]": {"tested_on": "aPKC", "assay": "Effect of ceramide on aPKC immunoprecipitated from liver lysates of LF and HF fed mice", "type": "biochemical, mouse", "method": "Standard (C57BI/6/SV129) mice consumed a standard low-fat or high-fat diet for 10 weeks. At 10 weeks mice were treated with or without insulin for 15 min prior to killing. Liver cell lysates were prepared as in Example 5 and aPKC activity assay was performed on the aPKC immunoprecipitate as in Example 5, except here the activity assays were carried out in the presence of the indicated concentrations of ceramide. Additionally, the levels of ceramide and sphingomyelin species in lipid extracts prepared from the liver cell lysates. Ceramide and sphingomyelin species were measured by liquid chromatography tandem mass spectrometry analysis of the lipid extracts of the liver lysates."}, "[9]": {"settings": "toward, not fully to, normal levels"}}}
{"compound": "NC(=O)c1ncn([C@@H]2C[C@H](COP(=O)(O)O)[C@@H](O)[C@H]2O)c1N", "note": "[ICAPP]", "values": [{"measurement": "aPKC activity in the brain", "setting": "[1]", "result": "decreased"}]}
{"compound": "NC(=O)c1ncn(C2CC(COP(=O)(O)O)C(O)C2O)c1N", "note": "(stereo not drawn) [ICAP]", "values": [{"measurement": "resting and insulin-stimulated hepatic aPKC activity", "setting": "[2]; ICAP 1 mg/kg, ACPD 10 mg/kg, to control levels", "result": "diminished"}, {"measurement": "muscle aPKC activity", "setting": "[2]; [9]", "result": "increased"}, {"measurement": "hepatic Akt2 activity", "setting": "[3]; ICAP 1 mg/kg, ACPD 10 mg/kg", "result": "increased further"}, {"measurement": "muscle Akt2 activity", "setting": "[3]; [9]", "result": "increased"}, {"measurement": "hepatic phosphorylation of Ser9-GSK3β and Ser2448-mTOR", "setting": "[4]", "result": "not altered"}, {"measurement": "insulin-stimulated Akt2 activity in liver (Ser473-Akt phosphorylation)", "setting": "[4]", "result": "increased"}, {"measurement": "resting Akt2 activity in liver (Ser473-Akt phosphorylation)", "setting": "[4]", "result": "did not alter"}, {"measurement": "basal/resting and exogenous insulin-stimulated hepatic aPKC activities (Thr555/560 phosphorylation)", "setting": "[4]; to levels of control low fat fed mice", "result": "reduced"}, {"measurement": "hepatic mRNA levels of SREBP-1c, FAS, PEPCK, G6Pase versus control/low-fat fed mice", "setting": "[5]", "result": "not significantly different"}, {"measurement": "hepatic protein levels of SREBP-1c, FAS, PEPCK, G6Pase versus control/low-fat fed mice", "setting": "[5]", "result": "not significantly different"}, {"measurement": "WD40/ProF-associated Akt activity", "setting": "[6]; HFF mice liver", "result": "increased"}, {"measurement": "aPKC binding to WD40/ProF", "setting": "[6]; HFF mice liver", "result": "diminished"}, {"measurement": "basal/resting and insulin-stimulated hepatic FoxO1 phosphorylation", "setting": "[6]; HFF mice", "result": "fully or partially restored"}, {"measurement": "HFF-induced increases in abdominal fat depots", "setting": "[7]; 10 weeks", "result": "improved"}, {"measurement": "food intake", "setting": "[7]; 10 weeks", "result": "without altering"}, {"measurement": "increases in liver triglycerides and fat content", "setting": "[7]; 10 weeks", "result": "largely prevented"}, {"measurement": "increases in serum triglycerides and cholesterol levels", "setting": "[7]; 10 weeks", "result": "largely prevented"}, {"measurement": "weight gain", "setting": "[7]; 10 weeks", "result": "largely prevented"}, {"measurement": "fasting insulin levels", "setting": "[7]; still modestly elevated", "result": "improved"}, {"measurement": "glucose tolerance, basal glucose levels (fasting and fed), acute effects of insulin on serum glucose", "setting": "[7]; to levels indistinguishable from control chow-fed mice", "result": "improved"}]}
{"compound": "ceramide", "values": [{"measurement": "activity of aPKC immunoprecipitated from liver lysates", "setting": "[8]; HFF mice", "result": "only a weak effect"}, {"measurement": "activity of aPKC immunoprecipitated from liver lysates", "setting": "[8]; HFF mice treated acutely with insulin", "result": "diminished activity"}, {"measurement": "activity of aPKC immunoprecipitated from liver lysates", "setting": "[8]; LFF/control mice", "result": "strongly activated"}]}
